Measured values from the supplement of paper PMC10307832.

Assays:
Experiment in all cases: relative viability (nuclei count vs DMSO), 5 days (fraction); higher = more cells survive
Elesclomol + Crizotinib = compound: CN(NC(=O)CC(=O)NN(C)C(=S)c1ccccc1)C(=S)c1ccccc1 [Elesclomol] + C[C@@H](Oc1cc(-c2cnn(C3CCNCC3)c2)cnc1N)c1c(Cl)ccc(F)c1Cl [Crizotinib] (partner 1 µM)
How it was run: (§1)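 Relative viability was taken as the ratio of nuclei in treated wells to nuclei in vehicle wells. Lung cancer cell lines in 1536-well plates received compounds by pin tool one day after seeding, either one drug alone or a fixed anchor-drug dose plus five library-drug doses (not always all listed) in √10 steps. Nuclei were counted on 4× images after 5 days of treatment, and values are medians of duplicate plates.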

Elesclomol + Phenformin = compound: CN(NC(=O)CC(=O)NN(C)C(=S)c1ccccc1)C(=S)c1ccccc1 [Elesclomol] + N=C(N)NC(=N)NCCc1ccccc1 [Phenformin] (partner 250 µM)
How it was run: as §1

Elesclomol + Alpelisib = compound: CN(NC(=O)CC(=O)NN(C)C(=S)c1ccccc1)C(=S)c1ccccc1 [Elesclomol] + Cc1nc(NC(=O)N2CCC[C@H]2C(N)=O)sc1-c1ccnc(C(C)(C)C(F)(F)F)c1 [Alpelisib] (partner 2 µM)
How it was run: as §1

Elesclomol + Foretinib = compound: CN(NC(=O)CC(=O)NN(C)C(=S)c1ccccc1)C(=S)c1ccccc1 [Elesclomol] + COc1cc2c(Oc3ccc(NC(=O)C4(C(=O)Nc5ccc(F)cc5)CC4)cc3F)ccnc2cc1OCCCN1CCOCC1 [Foretinib] (partner 0.25 µM)
How it was run: as §1

Elesclomol + OSI-027 = compound: CN(NC(=O)CC(=O)NN(C)C(=S)c1ccccc1)C(=S)c1ccccc1 [Elesclomol] + COc1cccc2cc(-c3nc([C@H]4CC[C@H](C(=O)O)CC4)n4ncnc(N)c34)[nH]c12 [OSI-027] (partner 0.5 µM)
How it was run: as §1

Cell Line	relative viability (Elesclomol + Crizotinib; first compound 0.003162 µM)	relative viability (Elesclomol + Crizotinib; first compound 0.01 µM)	relative viability (Elesclomol + Crizotinib; first compound 0.03162 µM)	relative viability (Elesclomol + Crizotinib; first compound 0.1 µM)	relative viability (Elesclomol + Phenformin; first compound 0.003162 µM)	relative viability (Elesclomol + Phenformin; first compound 0.01 µM)	relative viability (Elesclomol + Phenformin; first compound 0.03162 µM)	relative viability (Elesclomol + Phenformin; first compound 0.1 µM)	relative viability (Elesclomol + Alpelisib; first compound 0.003162 µM)	relative viability (Elesclomol + Alpelisib; first compound 0.01 µM)	relative viability (Elesclomol + Alpelisib; first compound 0.03162 µM)	relative viability (Elesclomol + Alpelisib; first compound 0.1 µM)	relative viability (Elesclomol + Foretinib; first compound 0.003162 µM)	relative viability (Elesclomol + Foretinib; first compound 0.01 µM)	relative viability (Elesclomol + Foretinib; first compound 0.03162 µM)	relative viability (Elesclomol + Foretinib; first compound 0.1 µM)	relative viability (Elesclomol + OSI-027; first compound 0.003162 µM)	relative viability (Elesclomol + OSI-027; first compound 0.01 µM)	relative viability (Elesclomol + OSI-027; first compound 0.03162 µM)	relative viability (Elesclomol + OSI-027; first compound 0.1 µM)
NCI-H2228	0.381	0.312	0.143	0.0592	0.294	0.188	0.159	0.0554	0.569	0.5	0.198	0.0389	0.863	0.844	0.252	0.054	0.568	0.27	0.188	0.0467
NCI-H2347	0.626	0.503	0.416	0.433	0.426	0.231	0.294	0.281	1.04	0.928	0.955	0.513	1.06	0.701	0.482	0.942	0.389	0.389	0.173	0.211
NCI-H2405	0.785	0.565	0.306	0.307	0.39	0.335	0.335	0.366	0.783	0.312	0.223	0.224	1.04	0.663	0.336	0.292	0.651	0.473	0.339	0.272
NCI-H3122	0.253	0.329	0.296	0.217	0.325	0.274	0.261	0.219	0.706	0.759	0.758	0.159	1.01	0.961	0.839	0.135	0.955	0.198	0.144	0.0943
PC-3 [JPC-3]	0.972	0.959	1.02	0.743	0.474	0.474	0.496	0.401	0.981	0.958	1.04	0.778	0.996	1.02	1.17	0.559	0.734	0.662	0.781	0.428
